Data on 14 compounds can be found in PubChem BioAssay (NCI).

Some test systems named below: 786-0 renal; A549 NSCLC; ACHN renal; BT-549 breast; HCC-2998 colon; MDA-MB-435; OVCAR-3 ovarian; SK-MEL-2 melanoma; SW-620 colon; TK-10 renal.
Holding throughout (test): NCI-60 cell line screen, 48 h

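Grown in 96-well plates, cells were treated for 48 hours with each compound at five concentrations. Insufficient inhibition: endpoint recorded as highest concentration tested. Here, GI50 denotes the concentration required for 50% inhibition of growth. At the TGI there is no net growth.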

Regarding `CC(C)C(C/C=C1\CC(CO)(COC(=O)C2CCCCC2)OC1=O)C(C)C` (stereo not given), the TGI in the experiment with 786-0 renal was 28.9 µM; with A549 NSCLC it was 32 µM; with ACHN renal, 32.3 µM; in the experiment with BT-549 breast, 47.2 µM; in the experiment on HCC-2998 colon, 65.1 µM; in the experiment on MDA-MB-435 it was greater than 100 µM. The TGI was 35.7 µM in the experiment with OVCAR-3 ovarian, greater than 100 µM in the experiment with SK-MEL-2 melanoma, 40.5 µM in the experiment with SW-620 colon and 41.8 µM in the experiment with TK-10 renal.
With `COc1ccc(C(SC2C(O)C(CO)OC2n2ccc(=O)[nH]c2=O)(c2ccccc2)c2ccc(OC)cc2)cc1` (stereo not given), the TGI with 786-0 renal was 32 µM; in the experiment on A549 NSCLC, 45.4 µM; in the experiment on ACHN renal, 81.5 µM; in the experiment on BT-549 breast, 33.6 µM; in the experiment with HCC-2998 colon it was 30.3 µM; in the experiment with MDA-MB-435 it was 22.8 µM. The TGI came out at 37.1 µM with OVCAR-3 ovarian, 31.4 µM in the experiment on SK-MEL-2 melanoma, 63.6 µM in the experiment with SW-620 colon and 57 µM in the experiment on TK-10 renal.
Consider `Cc1cc2c([nH]c3ccccc32)c(O)c1-c1c(C)cc2c([nH]c3ccccc32)c1O`, for which the TGI with 786-0 renal was 26.6 µM; in the experiment with A549 NSCLC it was 26.8 µM; in the experiment with ACHN renal, 27.3 µM; with BT-549 breast it was 33.6 µM; in the experiment with HCC-2998 colon, 22.4 µM; in the experiment on MDA-MB-435 it was 28.2 µM. For the same compound, the TGI was 29.3 µM with OVCAR-3 ovarian, 30.6 µM with SK-MEL-2 melanoma, 50.8 µM in the experiment with SW-620 colon and 31.2 µM with TK-10 renal. Besides, the GI50 in the experiment on MDA-MB-435 was 15 µM.
On to `CN(C)Cc1cc(C(=O)/C=C/c2ccccc2)cc(CN(C)C)c1O`, for which the TGI with 786-0 renal was greater than 100 µM; with A549 NSCLC, 68.9 µM; in the experiment on ACHN renal, greater than 100 µM; in the experiment with BT-549 breast it was 42.7 µM; with HCC-2998 colon, 64.8 µM; in the experiment with MDA-MB-435, greater than 100 µM. Further, the TGI was 99.1 µM with OVCAR-3 ovarian, 45.1 µM in the experiment on SW-620 colon and greater than 100 µM in the experiment on TK-10 renal.
On to `CC1(C)CC(=O)C2(CC(CSc3ccccc3)C(CS(=O)(=O)c3ccccc3)C2)C(=O)C1` (stereo not given), for which the TGI in the experiment with 786-0 renal, in the experiment on A549 NSCLC, in the experiment with ACHN renal, in the experiment with BT-549 breast, with HCC-2998 colon and in the experiment on MDA-MB-435 was greater than 100 µM in each case. Besides, the TGI in the experiment with OVCAR-3 ovarian, in the experiment on SK-MEL-2 melanoma, in the experiment on SW-620 colon and in the experiment with TK-10 renal was greater than 100 µM each time.
As to `CCOC(=O)c1cc(C)nc2c1c(=O)n(-c1ccccc1)c(=O)n2CCCCN1CCN(c2ccccc2)CC1`, the TGI in the experiment on 786-0 renal, in the experiment on A549 NSCLC, in the experiment on ACHN renal, in the experiment with BT-549 breast, in the experiment on HCC-2998 colon and in the experiment with MDA-MB-435 was greater than 100 µM in each case. Moreover, the TGI with SK-MEL-2 melanoma, with SW-620 colon and in the experiment on TK-10 renal was greater than 100 µM throughout.
For `Nc1nc(Cl)cc(NC23CC4CC(CC(C4)C2)C3)n1`, the TGI in the experiment on 786-0 renal, in the experiment on A549 NSCLC, in the experiment on ACHN renal, in the experiment with BT-549 breast, with HCC-2998 colon and in the experiment with MDA-MB-435 was greater than 100 µM throughout. In addition, the TGI in the experiment on OVCAR-3 ovarian was greater than 100 µM; in the experiment on SK-MEL-2 melanoma, 71.4 µM; with SW-620 colon it was greater than 100 µM.
Take `COc1ccc(Nc2ccc3ccccc3c2-c2c(O)ccc3ccccc23)cc1`: the TGI in the experiment on 786-0 renal was 32.2 µM; in the experiment with ACHN renal it was 29.8 µM; in the experiment with BT-549 breast it was 52 µM; with HCC-2998 colon, 29.1 µM; in the experiment on MDA-MB-435, 20.3 µM; in the experiment on OVCAR-3 ovarian, 27.7 µM. Also, the TGI in the experiment on SK-MEL-2 melanoma was found to be 28.3 µM; in the experiment on SW-620 colon, 28.2 µM; in the experiment on TK-10 renal, 75.3 µM.
For `C/C(=N\Nc1nc2ccccc2n1C)c1cc2ccccc2cn1`, the TGI in the experiment with 786-0 renal was found to be 3.82 µM; in the experiment on A549 NSCLC, 27.1 µM; in the experiment on ACHN renal, 11.8 µM; with BT-549 breast, 13.8 µM; in the experiment with HCC-2998 colon, 41.9 µM; in the experiment on MDA-MB-435, 9.89 µM. The figures for the TGI in the experiment on SW-620 colon and with TK-10 renal were 11.3 µM and 6.86 µM, respectively.
Turning to `c1ccc(/C(=N/Nc2ccncn2)c2ccccn2)cc1`, the TGI with 786-0 renal is greater than 100 µM; in the experiment on A549 NSCLC, greater than 100 µM; with ACHN renal it was 88.1 µM; in the experiment on BT-549 breast it was greater than 100 µM; with HCC-2998 colon it was greater than 100 µM; in the experiment on MDA-MB-435, greater than 100 µM. For the same compound, the TGI in the experiment on OVCAR-3 ovarian is 32.5 µM; in the experiment on SK-MEL-2 melanoma, greater than 100 µM; in the experiment on SW-620 colon, greater than 100 µM.
Consider `O=C1NC(=O)C(C(CC(=O)c2ccc(Cl)cc2)c2ccc(Cl)cc2)C(=O)N1` (stereo not given), for which the TGI in the experiment on 786-0 renal, in the experiment with A549 NSCLC, in the experiment with ACHN renal, in the experiment with BT-549 breast, with HCC-2998 colon and in the experiment on MDA-MB-435 was greater than 100 µM in each case. The TGI with OVCAR-3 ovarian, in the experiment on SK-MEL-2 melanoma and with SW-620 colon was greater than 100 µM in each case.
Turning to `Cc1nn(-c2ccccc2)c(C)c1/C=N/N=C1\S/C(=C\c2ccc(Cl)cc2)C(=O)N1c1ccccc1`, the TGI is 7.89 µM in the experiment on 786-0 renal; greater than 100 µM in the experiment on A549 NSCLC; greater than 100 µM in the experiment with ACHN renal; greater than 100 µM in the experiment on BT-549 breast; greater than 100 µM in the experiment on MDA-MB-435; greater than 100 µM in the experiment on OVCAR-3 ovarian. In addition, the TGI in the experiment with SK-MEL-2 melanoma, with SW-620 colon and in the experiment with TK-10 renal was greater than 100 µM in each case.
Consider `C=C(C)CC1(O[Si](C)(C)C)C(=O)C(OCC)=C1OCC` (stereo not given), for which the TGI with 786-0 renal, in the experiment on A549 NSCLC, in the experiment on ACHN renal, with BT-549 breast, with MDA-MB-435 and with OVCAR-3 ovarian was greater than 100 µM each time. The TGI in the experiment on SK-MEL-2 melanoma, in the experiment with SW-620 colon and in the experiment with TK-10 renal was greater than 100 µM throughout.
As for `NCC(O)CSCc1ccc(Cl)cc1` (stereo not given), the TGI with 786-0 renal, in the experiment with A549 NSCLC, in the experiment on ACHN renal, in the experiment with BT-549 breast, with HCC-2998 colon and in the experiment with MDA-MB-435 was greater than 100 µM in each case. For the same compound, the TGI in the experiment on OVCAR-3 ovarian, in the experiment with SW-620 colon and with TK-10 renal was greater than 100 µM throughout.
